Measured values published in ChEMBL document CHEMBL1201862, “PubChem BioAssay data set” (2004).
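96-well plates; 48 h exposure; 5 concentrations. Endpoints by linear interpolation between flanking doses. Not reached: highest tested concentration assigned. GI50 marks 50% less growth.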 Calls of active or inactive are those of the source. Cut-off read from the data, not from the text of the source: active = GI50 up to about 1.1 µM and inactive = higher.

Assays:
Assay in all cases: DTP human tumour cell line panel, 48 h
KM-20L2 = system: KM-20L2
M19-MEL = system: M19-MEL
DMS-114 = system: DMS-114
DMS-273 = system: DMS-273
HOP-18 = system: HOP-18
DLD-1 = system: DLD-1
XF498 = system: XF498
RXF 631 = system: RXF 631
SNB-78 = system: SNB-78

Row | Structure (SMILES) | GI50 (KM-20L2) | GI50 (M19-MEL) | GI50 (DMS-114) | GI50 (DMS-273) | GI50 (HOP-18) | GI50 (DLD-1) | GI50 (XF498) | GI50 (RXF 631) | GI50 (SNB-78)
1 | COc1cc2c(cc1OC)C(C(=O)c1cccc(OC)c1OC)C(=O)N(C)CC2 (stereo not given) | > 100 µM (inactive) | > 100 µM (inactive) | 56.5 µM (inactive) | > 100 µM (inactive) | > 100 µM (inactive) | > 100 µM (inactive) | 63.4 µM (inactive) | > 100 µM (inactive) | 
2 | O=C(c1ccccn1)c1nc(-c2ccc(Cl)c(Cl)c2)nc2ccc(Cl)cc12 | > 100 µM (inactive) | 81.1 µM (inactive) | 64.6 µM (inactive) | 32 µM (inactive) |  | 99.3 µM (inactive) | 20.8 µM (inactive) |  | > 100 µM (inactive)
3 | COc1ccc(OCC(=O)O)c2c1CCCC2=O |  | > 100 µM (inactive) | > 100 µM (inactive) | > 100 µM (inactive) |  | > 100 µM (inactive) | 3.52 µM (inactive) | > 100 µM (inactive) | > 100 µM (inactive)
4 | ONc1ncnc2[nH]cnc12 | > 100 µM (inactive) | > 100 µM (inactive) | > 100 µM (inactive) | > 100 µM (inactive) |  | > 100 µM (inactive) | > 100 µM (inactive) |  | 
5 | O=C(NC12CC3CC(CC(C3)C1)C2)C(=O)c1c[nH]c2ccc(Br)cc12 | 4.54 µM (inactive) |  | 65.9 µM (inactive) | 4.54 µM (inactive) | 19.1 µM (inactive) | 13.4 µM (inactive) |  |  | 35.7 µM (inactive)
6 | Nc1ccn([C@@H]2C[C@H](CO)[C@@H](O)[C@H]2O)c(=O)n1 | > 57.7 µM (inactive) | > 57.7 µM (inactive) | > 57.7 µM (inactive) | > 57.7 µM (inactive) | > 57.7 µM (inactive) | > 57.7 µM (inactive) |  | > 57.7 µM (inactive) | > 57.7 µM (inactive)
7 | COC(=O)Cc1cc(O)c2c(c1O)C(=O)c1ccccc1C2=O | > 100 µM (inactive) | > 100 µM (inactive) | > 100 µM (inactive) | > 100 µM (inactive) | > 100 µM (inactive) | > 100 µM (inactive) |  | 35.6 µM (inactive) | 37.6 µM (inactive)
8 | CC[C@@]1(OC(=O)CN(C)C)C(=O)OCc2c1cc1n(c2=O)Cc2cc3ccccc3nc2-1 | 0.249 µM (active) | 0.114 µM (active) | 0.0259 µM (active) | 0.01 µM (active) | 0.312 µM (active) | 0.323 µM (active) | 0.354 µM (active) |  | 7.67 µM (inactive)
9 | COC(=O)/C=C/C1C2C3(CCC(C)C12C)OCCS3 (stereo not given) | > 100 µM (inactive) | > 100 µM (inactive) | > 100 µM (inactive) | > 100 µM (inactive) | > 100 µM (inactive) | > 100 µM (inactive) | > 100 µM (inactive) |  | > 100 µM (inactive)
10 | Cc1c2ccncc2c(C)c2c1[nH]c1ccc(Cl)cc12 | 2.56 µM (inactive) | 2.56 µM (inactive) | 2.07 µM (inactive) | 1.59 µM (inactive) | 2.52 µM (inactive) | 2.15 µM (inactive) | 4.31 µM (inactive) |  | 3.94 µM (inactive)
11 | COc1ccc(OC)c2[s+]snc12 | > 100 µM (inactive) | 15.8 µM (inactive) |  | > 100 µM (inactive) |  | 49.5 µM (inactive) | 45.3 µM (inactive) | > 100 µM (inactive) | > 100 µM (inactive)
12 | COc1cc2c(c(OC)c1)C1(CC(CC#N)C2)SCCS1 (stereo not given) | > 100 µM (inactive) | > 100 µM (inactive) | > 100 µM (inactive) | > 100 µM (inactive) | > 100 µM (inactive) | > 100 µM (inactive) |  | > 100 µM (inactive) | > 100 µM (inactive)
13 | CC1=C(C(=O)Nc2cc(=O)n(C)c(=O)n2C)C(c2ccco2)C(C(=O)Nc2cc(=O)n(C)c(=O)n2C)=C(C)N1 | > 100 µM (inactive) | > 100 µM (inactive) | > 100 µM (inactive) |  |  | > 100 µM (inactive) | > 100 µM (inactive) | > 100 µM (inactive) | > 100 µM (inactive)
